Assay results as given in BigSolDB 2.1.

Nc1ccc(N2CCOCC2=O)cc1
solubility (mole fraction)
Details | in 1,4-dioxane | in THF | in ethanol | in ethyl acetate | in methanol | in n-propanol
278.15 K | 0.00411 | 0.00138 | 0.00127 | 0.000559 | 0.00172 | 0.000322
283.15 K | 0.00529 | 0.00182 | 0.00162 | 0.000794 | 0.00221 | 0.000404
288.15 K | 0.00665 | 0.00245 | 0.00208 | 0.0011 | 0.00285 | 0.000506
293.15 K | 0.0083 | 0.00323 | 0.0026 | 0.00149 | 0.00367 | 0.000649
298.15 K | 0.0102 | 0.00423 | 0.00321 | 0.00196 | 0.00463 | 0.000825
303.15 K | 0.0125 | 0.00542 | 0.00393 | 0.00257 | 0.00589 | 0.00105
308.15 K | 0.0149 | 0.00687 | 0.00475 | 0.00326 | 0.00751 | 0.00133
313.15 K | 0.0178 | 0.00865 | 0.00567 | 0.00412 | 0.00955 | 0.0017
318.15 K | 0.0209 | 0.0107 | 0.00672 | 0.00509 | 0.0121 | 0.00216
323.15 K | 0.0244 | 0.0132 | 0.00792 | 0.0062 | 0.0153 | 0.00274
328.15 K | 0.0282 | 0.0159 | 0.00928 | 0.00743 | 0.019 | 0.00348
333.15 K | 0.032 | 0.0191 | 0.0107 | 0.00873 | 0.0239 | 0.00443
